In assay [1] the target is T1, human 5-HT2c receptor protein (Homo sapiens, UniProt P28335).
T1 construct: expressed in transfected cells; host or cells: HEK293 (membranes)
T1 sequence (P28335 33-458): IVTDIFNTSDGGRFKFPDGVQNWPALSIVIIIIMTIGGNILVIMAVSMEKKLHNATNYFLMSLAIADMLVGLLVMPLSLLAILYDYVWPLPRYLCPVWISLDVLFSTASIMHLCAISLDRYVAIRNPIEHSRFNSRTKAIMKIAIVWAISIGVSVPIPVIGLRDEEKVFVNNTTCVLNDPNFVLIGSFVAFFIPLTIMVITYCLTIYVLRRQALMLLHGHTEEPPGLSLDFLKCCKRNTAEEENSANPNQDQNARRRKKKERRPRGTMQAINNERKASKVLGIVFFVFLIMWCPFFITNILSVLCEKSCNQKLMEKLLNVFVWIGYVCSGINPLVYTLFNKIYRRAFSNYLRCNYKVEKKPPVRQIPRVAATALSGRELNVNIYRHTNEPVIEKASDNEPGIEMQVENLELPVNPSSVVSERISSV
Put plainly: 5-HT2c receptor affinity assay (displacement of 3H-labelled 5-HT, Scintillation Proximity Assay). The following applies: membranes of transfected HEK293 cells; 3H-5-HT displacement; non-specific binding 5 μM mianserin. The procedure:
The 5-HT2c receptor affinity of compounds in the Examples was determined in competition experiments, where the ability of each compound in serial dilution to displace ^3H-labelled 5-HT, bound to membranes prepared from a transfected HEK293 cell line stably expressing the human 5-HT2c receptor protein, was monitored by Scintillation Proximity Assay technology. Non-specific binding was defined using 5 μM mianserin. Typically, the 5HT2c receptor affinity values (Ki, nM) were in the range of 1 nM to 1500 nM, preferably 1 nM to 100 nM.

For assay [2] the following is noted: cited from earlier work.
The target in assay [3] is T2, 5-HT2c receptor (Mus musculus, UniProt P34968).
T2 construct: mice that express the normal 5-HT2c receptor; host or cells: mice (in vivo)
T2 sequence (P34968 33-459): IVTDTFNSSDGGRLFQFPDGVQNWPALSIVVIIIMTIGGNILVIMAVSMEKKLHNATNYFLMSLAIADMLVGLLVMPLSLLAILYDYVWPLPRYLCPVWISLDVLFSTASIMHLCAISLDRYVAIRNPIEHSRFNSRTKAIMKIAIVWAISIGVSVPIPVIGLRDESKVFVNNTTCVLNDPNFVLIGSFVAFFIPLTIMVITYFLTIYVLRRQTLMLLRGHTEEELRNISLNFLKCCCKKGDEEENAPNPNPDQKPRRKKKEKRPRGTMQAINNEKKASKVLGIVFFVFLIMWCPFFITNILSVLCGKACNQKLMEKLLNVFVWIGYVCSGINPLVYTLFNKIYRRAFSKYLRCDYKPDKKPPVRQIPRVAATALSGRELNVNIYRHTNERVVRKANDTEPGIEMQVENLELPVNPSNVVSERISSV
Particulars: mice that express the normal 5-HT2c receptor; cited from earlier work.

Assay [4] deals with 5-HT2c receptor. The following applies: mice expressing the mutated inactive form of the 5-HT2c receptor; cited from earlier work.

Like-named read-outs stand apart in the source and are kept apart here.

Regarding `c1cc(CN2CCOCC2)cc(OCCOc2nccnc2N2CCNCC2)c1` [Example 1, 2-(1-Piperazinyl)-3-{2-[3-(4-morpholinylmethyl)phenoxy]ethoxy}pyrazine], in assay [1], the affinity, expressed as Ki, was 18 nM.
For `CCN[C@@H](C)Cc1cccc(C(F)(F)F)c1` [dexfenflurarnine], the body weight result in assay [2] (controlled clinical studies) is “weight reduction”.
With `CNCCC(Oc1ccc(C(F)(F)F)cc1)c1ccccc1` (stereo not shown) [fluoxetine], in assay [2] (controlled clinical studies), the body weight result is on record as “weight reduction”.
As to `Clc1cccc(N2CCNCC2)c1` [mCPP, m-chlorophenylpiperazine], in assay [2] (obese subjects, after 2 weeks of treatment), the body weight result is reported as “slight but sustained reduction in body weight”. Moreover, the food intake entry is “reduces food intake” at 5-HT2c receptor [3] and “lacks activity” with 5-HT2c receptor [4].
In the case of `CC(C)NCc1cccc(OCCOc2nccnc2N2CCNCC2)c1` [Example 5, 2-(1-Piperazinyl)-3-{2-[3-{(isopropylamino)methyl}phenoxy]ethoxy}pyrazine], the Ki – broadly, a dissociation constant, usually derived from enzyme kinetics or from competition with a known ligand – in assay [1] is 3 nM.

(Values after patent US6756377B2, “Compounds and their use” (Biovitrum AB, priority 2000, dated 2004).)
